Source: patent publication US20240158446A1, “CYCLIC COMPOUND HAVING SELECTIVE INHIBITORY ACTION ON KRAS OVER HRAS AND NRAS” (CHUGAI SEIYAKU KABUSHIKI KAISHA, priority 2021, published 2024)

What was measured:
[1] = target: GDP-bound NRAS wild-type protein (Homo sapiens, UniProt P01111); test: Binding to NRAS by surface plasmon resonance (SPR), Single Cycle Kinetics; details: for NRAS/KRAS (ratio of KD value with respect to GDP-bound NRAS wild-type protein to KD value with respect to KRAS): SPR KD ratio NRAS/KRAS, class symbols; for NRAS/KRAS (ratio of KD value for NRAS to KD value for KRAS): SPR, GDP-bound NRAS wild-type protein vs GDP-bound KRAS wild-type protein
[2] = target: GDP-bound HRAS wild-type protein (Homo sapiens, UniProt P01112); test: Binding to HRAS by surface plasmon resonance (SPR), Single Cycle Kinetics; details: for HRAS/KRAS (ratio of KD value with respect to GDP-bound HRAS wild-type protein to KD value with respect to KRAS): SPR KD ratio HRAS/KRAS, class symbols; for HRAS/KRAS (ratio of KD value for HRAS to KD value for KRAS): SPR, GDP-bound HRAS wild-type protein vs GDP-bound KRAS wild-type protein
Sequence of GDP-bound HRAS wild-type protein (P01112 whole entry): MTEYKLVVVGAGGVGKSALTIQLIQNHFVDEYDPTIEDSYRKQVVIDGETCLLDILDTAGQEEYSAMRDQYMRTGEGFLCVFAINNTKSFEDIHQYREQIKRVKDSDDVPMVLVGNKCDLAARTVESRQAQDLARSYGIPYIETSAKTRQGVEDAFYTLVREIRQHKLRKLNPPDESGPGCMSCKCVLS

Sequence of GDP-bound NRAS wild-type protein (P01111 whole entry): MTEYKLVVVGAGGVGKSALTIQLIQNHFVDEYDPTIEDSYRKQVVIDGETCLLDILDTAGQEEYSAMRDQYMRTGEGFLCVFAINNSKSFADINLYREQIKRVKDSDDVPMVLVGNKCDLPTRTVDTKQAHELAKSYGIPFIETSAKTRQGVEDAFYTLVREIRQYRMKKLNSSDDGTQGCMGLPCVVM

Row | Structure (SMILES) | NRAS/KRAS (ratio of KD value with respect to GDP-bound NRAS wild-type protein to KD value with respect to KRAS) [1] | HRAS/KRAS (ratio of KD value with respect to GDP-bound HRAS wild-type protein to KD value with respect to KRAS) [2] | NRAS/KRAS (ratio of KD value for NRAS to KD value for KRAS) [1] | HRAS/KRAS (ratio of KD value for HRAS to KD value for KRAS) [2] | also measured
1 | CCC[C@H]1C(=O)N[C@@H]([C@@H](C)CC)C(=O)N(C2CC2)CC(=O)N(C)[C@H]2C/C=C\CCN(C2=O)[C@@H](Cc2ccc(C)cc2)C(=O)N(C)CC(=O)N[C@@H](CCc2ccc(C3CC3)c(OC)c2)C(=O)N2C[C@H](OCC)C[C@H]2C(=O)NC2(CC(C)(C)C2)C(=O)N(C)[C@@H](C2CCCC2)C(=O)N(C)[C@H](C(=O)N(C)C)CC(=O)N1C [PP2883] | A (a compound having 10 or more and less than 20 is denoted as A) | A (a compound having 10 or more and less than 20 is denoted as A) | – | – | –
2 | CCC[C@H]1C(=O)N[C@@H](C2CCCC2)C(=O)N(C)CC(=O)N(C)[C@H]2C/C=C\CCN(C2=O)[C@@H](Cc2ccc(C)cc2)C(=O)N(C)CC(=O)N[C@@H](CCc2ccc(C(F)(F)F)c(OC)c2)C(=O)N2CC3(CC3)C[C@H]2C(=O)NC2(CC(C)(C)C2)C(=O)N(C)[C@@H](CC(C)(C)C)C(=O)N(C)[C@H](C(=O)N(C)C)CC(=O)N1C [PP3010] | – | – | B (a compound having 3 or more and less than 10 is denoted as B) | B (a compound having 3 or more and less than 10 is denoted as B) | –
3 | CCC[C@H]1C(=O)N[C@@H]([C@@H](C)CC)C(=O)N(C)CC(=O)N(C)[C@H]2C/C=C\CCN(C2=O)[C@@H](Cc2ccc(C(F)(F)F)cc2)C(=O)N(C)CC(=O)N[C@@H](CCc2ccc(C(F)(F)F)c(CC)c2)C(=O)N2C[C@H](OCC)C[C@H]2C(=O)NC2(CC(C)(C)C2)C(=O)N(C)[C@@H](C2CCCC2)C(=O)N(C)[C@H](C(=O)N(C)C)CC(=O)N1C [PP2861] | A (a compound having 10 or more and less than 20 is denoted as A) | B (a compound having 3 or more and less than 10 is denoted as B) | – | – | –
4 | CCC[C@H]1C(=O)N[C@@H](C2CCCC2)C(=O)N(C)CC(=O)N(C)[C@H]2C/C=C\CCN(C2=O)[C@@H](Cc2ccc(C)cc2)C(=O)N(C)CC(=O)N[C@@H](CCc2cc(F)c(C(F)(F)F)c(F)c2)C(=O)N2C[C@H](OCC)C[C@H]2C(=O)NC2(CC(C)(C)C2)C(=O)N(C)[C@@H](C2CCCC2)C(=O)N(C)[C@H](C(=O)N(C)C)CC(=O)N1C [PP2988] | – | – | B (a compound having 3 or more and less than 10 is denoted as B) | B (a compound having 3 or more and less than 10 is denoted as B) | –
5 | CCC[C@H]1C(=O)N[C@@H]([C@@H](C)CC)C(=O)N(C)CC(=O)N(C)[C@H]2C/C=C\CCN(C2=O)[C@@H](Cc2ccc(C(F)(F)F)cc2)C(=O)N(C)CC(=O)N[C@@H](CCc2ccc(C3CC3)c(Cl)c2)C(=O)N2C[C@H](OCC)C[C@H]2C(=O)NC2(CC(C)(C)C2)C(=O)N(C)[C@@H](C2CCCC2)C(=O)N(C)[C@H](C(=O)N(C)C)CC(=O)N1C [PP2858] | A (a compound having 10 or more and less than 20 is denoted as A) | B (a compound having 3 or more and less than 10 is denoted as B) | – | – | –
6 | C#CC[C@H]1C(=O)N[C@@H]([C@@H](C)CC)C(=O)N(C)CC(=O)N(C)[C@H]2C/C=C\CCN(C2=O)[C@@H](Cc2ccc(C(F)(F)F)cc2)C(=O)N(C)CC(=O)N[C@@H](CCc2ccc(C(F)(F)F)c(OC)c2)C(=O)N2C[C@@H](C)C[C@H]2C(=O)NC2(CC(C)(C)C2)C(=O)N(C)[C@@H](C2CCCC2)C(=O)N(C)[C@H](C(=O)N(C)CCC)CC(=O)N1C [PP2057] | – | – | A (a compound having 10 or more and less than 20 is denoted as A) | A (a compound having 10 or more and less than 20 is denoted as A) | –
7 | CCC[C@H]1C(=O)N[C@@H]([C@@H](C)CC)C(=O)N(C)CC(=O)N(C)[C@H]2C/C=C\CCN(C2=O)[C@@H](Cc2ccc(C)cc2)C(=O)N(C)CC(=O)N[C@@H](CCc2cc(F)c(C(F)(F)F)c(F)c2)C(=O)N2C[C@H](OCC)C[C@H]2C(=O)NC2(CC(C)(C)C2)C(=O)N(C)[C@@H](CC(C)C)C(=O)N(C)[C@H](C(=O)N(C)C)CC(=O)N1C [PP2995] | – | – | A (a compound having 10 or more and less than 20 is denoted as A) | A (a compound having 10 or more and less than 20 is denoted as A) | –
8 | CCC[C@H]1C(=O)N[C@@H]([C@@H](C)CC)C(=O)N(C)CC(=O)N(C)[C@H]2C/C=C\CCN(C2=O)[C@@H](Cc2ccc(C)cc2)C(=O)N(C)CC(=O)N[C@@H](CCc2ccc(C(F)(F)F)c(Cl)c2)C(=O)N2C[C@H](C)C[C@H]2C(=O)NC2(CC(C)(C)C2)C(=O)N(C)[C@@H](C2CCCC2)C(=O)N(C)[C@H](C(=O)N(C)C)CC(=O)N1C [PP2210] | – | – | A (a compound having 10 or more and less than 20 is denoted as A) | B (a compound having 3 or more and less than 10 is denoted as B) | –
9 | CCC[C@H]1C(=O)N[C@@H](C2CCC2)C(=O)N(C)CC(=O)N(C)[C@H]2C/C=C\CCN(C2=O)[C@@H](Cc2ccc(C)cc2)C(=O)N(C)CC(=O)N[C@@H](CCc2ccc(C(F)(F)F)c(F)c2)C(=O)N2C[C@H](OCC)C[C@H]2C(=O)NC2(CC(C)(C)C2)C(=O)N(C)[C@@H](C2CCC2)C(=O)N(C)[C@H](C(=O)N(C)C)CC(=O)N1C [PP2242] | – | – | A (a compound having 10 or more and less than 20 is denoted as A) | A (a compound having 10 or more and less than 20 is denoted as A) | –
10 | CCC[C@H]1C(=O)N[C@@H]([C@@H](C)CC)C(=O)N(C)CC(=O)N(C)[C@H]2C/C=C\CCN(C2=O)[C@@H](Cc2ccc(C)cc2)C(=O)N(C)CC(=O)N[C@@H](CCc2cc(F)c(C(F)(F)F)c(F)c2)C(=O)N2C[C@H](OCC)C[C@H]2C(=O)NC2(CC(C)(C)C2)C(=O)N(C)[C@@H](CC2CC2)C(=O)N(C)[C@H](C(=O)N(C)C)CC(=O)N1C [PP2797] | A (a compound having 10 or more and less than 20 is denoted as A) | A (a compound having 10 or more and less than 20 is denoted as A) | – | – | –
11 | CCC[C@H]1C(=O)N[C@@H]([C@@H](C)CC)C(=O)N(C)CC(=O)N(C)[C@H]2C/C=C\CCN(C2=O)[C@@H](Cc2ccc(C(F)(F)F)cc2)C(=O)N(C)CC(=O)N[C@@H](CCc2ccc(C(F)(F)F)c(C3CC3)c2)C(=O)N2C[C@H](OCC)C[C@H]2C(=O)NC2(CC(C)(C)C2)C(=O)N(C)[C@@H](C2CCCC2)C(=O)N(C)[C@H](C(=O)N(C)C)CC(=O)N1C [PP2852] | B (a compound having 3 or more and less than 10 is denoted as B) | B (a compound having 3 or more and less than 10 is denoted as B) | – | – | –
12 | CCO[C@@H]1C[C@H]2C(=O)NC3(CCC3)C(=O)N(C)[C@@H](C3CCCC3)C(=O)N(C)[C@H](C(=O)N(CC)CC)CC(=O)N(C)[C@@H](CC(F)F)C(=O)N[C@@H]([C@@H](C)CC)C(=O)N(C)CC(=O)N(C)[C@H]3C/C=C\CCN(C3=O)[C@@H](Cc3ccc(C(F)(F)F)cc3)C(=O)N(C)CC(=O)N[C@@H](CCc3cc(F)c(C(F)(F)F)c(F)c3)C(=O)N2C1 [PP1309] | – | – | – | – | NRAS/KRAS (ratio of KD value for NRAS to KD value for KRAS) ([1]; KD ratio class): A (a compound having 10 or more and less than 20 is denoted as A); HRAS/KRAS (ratio of KD value for HRAS to KD value for KRAS) ([2]; KD ratio class): A (a compound having 10 or more and less than 20 is denoted as A)
13 | CCO[C@@H]1C[C@H]2C(=O)NC3(CCC3)C(=O)N(C)[C@@H]([C@H](C)CC)C(=O)N(C)[C@H](C(=O)N3CCOCC3)CC(=O)N(C)[C@@H](CC(C)C)C(=O)N[C@@H]([C@@H](C)CC)C(=O)N(C)CC(=O)N(C)[C@H]3CCCCCN(C3=O)[C@@H](Cc3ccc(C(F)(F)F)cc3)C(=O)N(C)CC(=O)N[C@@H](CCc3cc(F)c(C(F)(F)F)c(F)c3)C(=O)N2C1 [PP0821] | – | – | A (a compound having 10 or more and less than 20 is denoted as A) | B (a compound having 3 or more and less than 10 is denoted as B) | –
14 | CCC[C@H]1C(=O)N[C@@H]([C@@H](C)CC)C(=O)N(C)CC(=O)N(C)[C@H]2C/C=C\CCN(C2=O)[C@@H](Cc2ccc(C)cc2)C(=O)N(C)CC(=O)N[C@@H](CCc2cc(Cl)c3c(ccn3C)c2)C(=O)N2C[C@H](OCC)C[C@H]2C(=O)NC2(CC(C)(C)C2)C(=O)N(C)[C@@H](C2CCCC2)C(=O)N(C)[C@H](C(=O)N(C)C)CC(=O)N1C [PP2951] | A (a compound having 10 or more and less than 20 is denoted as A) | A (a compound having 10 or more and less than 20 is denoted as A) | – | – | –
15 | CCOC[C@H]1C(=O)N[C@@H]([C@@H](C)CC)C(=O)N(C)CC(=O)N(C)[C@H]2C/C=C\CCN(C2=O)[C@@H](Cc2ccc(CC)cc2)C(=O)N(C)CC(=O)N[C@@H](CCc2ccc(C(F)(F)F)c(OC)c2)C(=O)N2C[C@@H](C)C[C@H]2C(=O)NC2(CC(C)(C)C2)C(=O)N(C)[C@@H](C2CCCC2)C(=O)N(C)[C@H](C(=O)N(C)CC)CC(=O)N1C (stereo in doubt) [PP2696] | A (a compound having 10 or more and less than 20 is denoted as A) | B (a compound having 3 or more and less than 10 is denoted as B) | – | – | –
16 | CCO[C@@H]1C[C@H]2C(=O)NC3(CCCC3)C(=O)N(C)[C@@H](C3CCCC3)C(=O)N(C)[C@H](C(=O)N3CCOCC3)CC(=O)N(C)[C@@H](CC(C)C)C(=O)N[C@@H]([C@@H](C)CC)C(=O)N(C)CC(=O)N(C)[C@H]3CCCCCN(C3=O)[C@@H](Cc3ccc(F)cc3)C(=O)N(C)CC(=O)N[C@@H](CCc3ccc(C(F)(F)F)c(Cl)c3)C(=O)N2C1 [PP0965] | – | – | B (a compound having 3 or more and less than 10 is denoted as B) | B (a compound having 3 or more and less than 10 is denoted as B) | –
